Source: patent US9850283B2, “Macrocyclic inhibitors of the PD-1/PD-L1 and CD80(B7-1)/PD-L1 protein/protein interactions” (BRISTOL-MYERS SQUIBB COMPANY, priority 2013, dated 2017)
Positions of bridges follow the written chain, without caps; N, C: chain ends. Non-standard residues stand in square brackets, D forms with d. Residues, ends and D or L forms follow the SMILES beside them. Phe(3-CF3) = N[C@@H](Cc1cccc(C(F)(F)F)c1)C(=O)O; Phe(4-CF3) = N[C@@H](Cc1ccc(C(F)(F)F)cc1)C(=O)O; Phe(4-tBu) = CC(C)(C)c1ccc(C[C@H](N)C(=O)O)cc1; Phe(3-Me) = Cc1cccc(C[C@H](N)C(=O)O)c1; Hyp = O=C(O)[C@@H]1C[C@@H](O)CN1; 2Pal = N[C@@H](Cc1ccccn1)C(=O)O; 3Pal = N[C@@H](Cc1cccnc1)C(=O)O; 4Pal = N[C@@H](Cc1ccncc1)C(=O)O; AllylGly = C=CC[C@H](N)C(=O)O; NMeNle = CCCC[C@H](NC)C(=O)O; NMeA = CN[C@@H](C)C(=O)O; Dap = NC[C@H](N)C(=O)O

How the values were obtained:
Human PD-L1/PD-1 = target: T1, Human PD-L1/PD-1 (Homo sapiens, UniProt Q9NZQ7); assay: HTRF PD-1-Ig/PD-L1-His binding assay (human PD-L1); conditions: cluster symbol; read-out: HTRF IC50 cluster
T1 construct: made in house; host or cells: HEK293T
T1 sequence (Q9NZQ7 with tags, fused parts or gaps): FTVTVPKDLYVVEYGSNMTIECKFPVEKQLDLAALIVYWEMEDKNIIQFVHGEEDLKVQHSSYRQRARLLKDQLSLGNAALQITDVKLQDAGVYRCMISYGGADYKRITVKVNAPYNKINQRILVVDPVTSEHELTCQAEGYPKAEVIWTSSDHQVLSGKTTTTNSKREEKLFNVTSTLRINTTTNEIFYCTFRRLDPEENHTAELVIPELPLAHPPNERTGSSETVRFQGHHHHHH
Procedure, shortened: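 Soluble PD-1-Ig binding to PD-L1-His measured by HTRF in dPBS with 0.1% BSA and 0.05% Tween-20. Detection used europium cryptate anti-Ig antibody (1 nM final) and APC anti-His antibody (20 nM final) added on top of the binding reaction.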

[1] = target: T2, LK35.2-hPD-L1 cells / PE-labeled PD-1-Ig (Homo sapiens, UniProt Q9NZQ7); assay: LK35.2-hPD-L1 cell binding high-content screening assay; format: cell-based; conditions: cell binding assay, cell line not given; cluster symbol; read-out: CBA IC50 cluster
T2 construct: expressed in transfected cells; host or cells: LK35.2 mouse B cell line
T2 sequence (Q9NZQ7 19-290): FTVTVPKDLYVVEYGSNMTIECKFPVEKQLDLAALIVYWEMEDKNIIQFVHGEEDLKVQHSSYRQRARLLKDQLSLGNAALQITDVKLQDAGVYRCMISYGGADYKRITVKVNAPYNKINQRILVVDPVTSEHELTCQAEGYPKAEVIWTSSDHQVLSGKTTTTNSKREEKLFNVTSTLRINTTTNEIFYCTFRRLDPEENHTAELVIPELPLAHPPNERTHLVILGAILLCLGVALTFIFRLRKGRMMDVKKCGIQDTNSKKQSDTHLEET
Procedure, shortened: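 Binding of PE-conjugated human PD-1-Ig (1 nM final) to human PD-L1 stably expressed on a mouse B-cell line (LK35.2) was measured by high-content imaging after washes. Compound and labeled PD-1-Ig were co-incubated 1 h at 37 °C with cells in RPMI/10% FCS.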

Row | Structure (SMILES) | IC50 (Human PD-L1/PD-1) [nM] | IC50 [1] [nM]
1 | CCCC[C@H]1C(=O)N(C)[C@@H](CCCC)C(=O)N[C@@H](CCCNC(=N)N)C(=O)N[C@H](C(=O)NCC(N)=O)CSCC(=O)N[C@@H](Cc2ccc(O)cc2)C(=O)N(C)[C@@H](C)C(=O)N[C@@H](CC(N)=O)C(=O)N2CCC[C@H]2C(=O)N[C@@H](Cc2ccccn2)C(=O)N[C@@H](CC(C)C)C(=O)N2C[C@H](O)C[C@H]2C(=O)N[C@@H](Cc2c[nH]c3ccccc23)C(=O)N[C@@H](CO)C(=O)N[C@@H](Cc2c[nH]c3ccccc23)C(=O)N1C [Example 7026] ({CH2CO}-Y[NMeA]NP[2Pal]L[Hyp]WSW[NMeNle][NMeNle]RCG-NH2; thioether N-14) | 6.76 to 30.3 | 4.78 to 72.9
2 | CCCC[C@H]1C(=O)N(C)[C@@H](CCCC)C(=O)N[C@@H](CCCNC(=N)N)C(=O)N[C@H](C(=O)NCC(N)=O)CSCC(=O)N[C@@H](Cc2ccc(O)cc2)C(=O)N(C)[C@@H](C)C(=O)N[C@@H](CC(N)=O)C(=O)N2CCC[C@H]2C(=O)N[C@@H](Cc2ccncc2)C(=O)N[C@@H](CC(C)C)C(=O)N2C[C@H](O)C[C@H]2C(=O)N[C@@H](Cc2c[nH]c3ccccc23)C(=O)N[C@@H](CO)C(=O)N[C@@H](Cc2c[nH]c3ccccc23)C(=O)N1C [Example 7028] ({CH2CO}-Y[NMeA]NP[4Pal]L[Hyp]WSW[NMeNle][NMeNle]RCG-NH2; thioether N-14) | 6.76 to 30.3 | 0.158 to 4.71
3 | CCCC[C@H]1C(=O)N(C)[C@@H](CCCC)C(=O)N[C@@H](CCCNC(=N)N)C(=O)N[C@H](C(=O)NCC(N)=O)CSCC(=O)N[C@@H](Cc2ccncc2)C(=O)N(C)[C@@H](C)C(=O)N[C@@H](CC(N)=O)C(=O)N2CCC[C@H]2C(=O)N[C@@H](Cc2cnc[nH]2)C(=O)N[C@@H](CC(C)C)C(=O)N2C[C@H](O)C[C@H]2C(=O)N[C@@H](Cc2c[nH]c3ccccc23)C(=O)N[C@@H](CO)C(=O)N[C@@H](Cc2c[nH]c3ccccc23)C(=O)N1C [Example 7029] ({CH2CO}-[4Pal][NMeA]NPHL[Hyp]WSW[NMeNle][NMeNle]RCG-NH2; thioether N-14) | > 30.5 | 4.78 to 72.9
4 | CCCC[C@H]1C(=O)N(C)[C@@H](CCCC)C(=O)N[C@@H](CCCNC(=N)N)C(=O)N[C@H](C(=O)NCC(N)=O)CSCC(=O)N[C@@H](Cc2ccc(C(F)(F)F)cc2)C(=O)N(C)[C@@H](C)C(=O)N[C@@H](CC(N)=O)C(=O)N2CCC[C@H]2C(=O)N[C@@H](CN)C(=O)N[C@@H](CC(C)C)C(=O)N2C[C@H](O)C[C@H]2C(=O)N[C@@H](Cc2c[nH]c3ccccc23)C(=O)N[C@@H](CO)C(=O)N[C@@H](Cc2c[nH]c3ccccc23)C(=O)N1C [Example 7030] ({CH2CO}-[Phe(4-CF3)][NMeA]NP[Dap]L[Hyp]WSW[NMeNle][NMeNle]RCG-NH2; thioether N-14) | 0.385 to 6.74 | 4.78 to 72.9
5 | CCCC[C@H]1C(=O)N(C)[C@@H](CCCC)C(=O)N[C@@H](Cc2ccncc2)C(=O)N[C@H](C(=O)NCC(N)=O)CSCC(=O)N[C@@H](Cc2ccc(O)cc2)C(=O)N(C)[C@@H](C)C(=O)N[C@@H](CC(N)=O)C(=O)N2CCC[C@H]2C(=O)N[C@@H](Cc2cnc[nH]2)C(=O)N[C@@H](CC(C)C)C(=O)N2C[C@H](O)C[C@H]2C(=O)N[C@@H](Cc2c[nH]c3ccccc23)C(=O)N[C@@H](CO)C(=O)N[C@@H](Cc2c[nH]c3ccccc23)C(=O)N1C [Example 7031] | 0.385 to 6.74 | 4.78 to 72.9
6 | CCCC[C@H]1C(=O)N(C)[C@@H](CCCC)C(=O)N[C@@H](Cc2cccnc2)C(=O)N[C@H](C(=O)NCC(N)=O)CSCC(=O)N[C@@H](Cc2ccc(O)cc2)C(=O)N(C)[C@@H](C)C(=O)N[C@@H](CC(N)=O)C(=O)N2CCC[C@H]2C(=O)N[C@@H](Cc2cnc[nH]2)C(=O)N[C@@H](CC(C)C)C(=O)N2C[C@H](O)C[C@H]2C(=O)N[C@@H](Cc2c[nH]c3ccccc23)C(=O)N[C@@H](CO)C(=O)N[C@@H](Cc2c[nH]c3ccccc23)C(=O)N1C [Example 7033] | 0.385 to 6.74 | 0.158 to 4.71
7 | CCCC[C@H]1C(=O)N(C)[C@@H](CCCC)C(=O)N[C@@H](CCCNC(=N)N)C(=O)N[C@H](C(=O)NCC(N)=O)CSCC(=O)N[C@@H](Cc2cccc(C(F)(F)F)c2)C(=O)N(C)[C@@H](C)C(=O)N[C@@H](CC(N)=O)C(=O)N2CCC[C@H]2C(=O)N[C@@H](CN)C(=O)N[C@@H](CC(C)C)C(=O)N2C[C@H](O)C[C@H]2C(=O)N[C@@H](Cc2c[nH]c3ccccc23)C(=O)N[C@@H](CO)C(=O)N[C@@H](Cc2c[nH]c3ccccc23)C(=O)N1C [Example 7034] ({CH2CO}-[Phe(3-CF3)][NMeA]NP[Dap]L[Hyp]WSW[NMeNle][NMeNle]RCG-NH2; thioether N-14) | 0.385 to 6.74 | 4.78 to 72.9
8 | CCCC[C@H]1C(=O)N(C)[C@@H](CCCC)C(=O)N[C@@H](CCCNC(=N)N)C(=O)N[C@H](C(=O)NCC(N)=O)CSCC(=O)N[C@@H](Cc2cccc(C)c2)C(=O)N(C)[C@@H](C)C(=O)N[C@@H](CC(N)=O)C(=O)N2CCC[C@H]2C(=O)N[C@@H](CN)C(=O)N[C@@H](CC(C)C)C(=O)N2C[C@H](O)C[C@H]2C(=O)N[C@@H](Cc2c[nH]c3ccccc23)C(=O)N[C@@H](CO)C(=O)N[C@@H](Cc2c[nH]c3ccccc23)C(=O)N1C [Example 7035] ({CH2CO}-[Phe(3-Me)][NMeA]NP[Dap]L[Hyp]WSW[NMeNle][NMeNle]RCG-NH2; thioether N-14) | 0.385 to 6.74 | 4.78 to 72.9
9 | CCCC[C@H]1C(=O)N(C)[C@@H](CCCC)C(=O)N[C@@H](CCCNC(=N)N)C(=O)N[C@H](C(=O)NCC(N)=O)CSCC(=O)N[C@@H](Cc2ccc(C(C)(C)C)cc2)C(=O)N(C)[C@@H](C)C(=O)N[C@@H](CC(N)=O)C(=O)N2CCC[C@H]2C(=O)N[C@@H](CN)C(=O)N[C@@H](CC(C)C)C(=O)N2C[C@H](O)C[C@H]2C(=O)N[C@@H](Cc2c[nH]c3ccccc23)C(=O)N[C@@H](CO)C(=O)N[C@@H](Cc2c[nH]c3ccccc23)C(=O)N1C [Example 7036] ({CH2CO}-[Phe(4-tBu)][NMeA]NP[Dap]L[Hyp]WSW[NMeNle][NMeNle]RCG-NH2; thioether N-14) | 6.76 to 30.3 | > 74.3

Continued, values first:

Row | IC50 (Human PD-L1/PD-1) [nM] | IC50 [1] [nM] | Structure (SMILES)
10 | > 30.5 | > 74.3 | C=CC[C@@H]1NC(=O)[C@H](Cc2c[nH]c3ccccc23)NC(=O)[C@@H]2CCCN2C(=O)[C@H](CC(C)C)NC(=O)[C@H](Cc2cnc[nH]2)NC(=O)[C@@H]2CCCN2C(=O)[C@H](CC(N)=O)NC(=O)[C@H](C)N(C)C(=O)[C@H](Cc2cnc[nH]2)NC(=O)CSC[C@@H](C(=O)NCC(N)=O)NC(=O)[C@H](CC=C)NC(=O)[C@H](CCCC)N(C)C(=O)[C@H](CCCC)N(C)C(=O)[C@H](Cc2c[nH]c3ccccc23)NC1=O [Example 7021] ({CH2CO}-H[NMeA]NPHLPW[AllylGly]W[NMeNle][NMeNle][AllylGly]CG-NH2; thioether N-14)
11 | 6.76 to 30.3 | 4.78 to 72.9 | C=CC[C@@H]1NC(=O)[C@H](Cc2c[nH]c3ccccc23)NC(=O)[C@@H]2CCCN2C(=O)[C@H](CC(C)C)NC(=O)[C@H](CN)NC(=O)[C@@H]2CCCN2C(=O)[C@H](CC(N)=O)NC(=O)[C@H](C)N(C)C(=O)[C@H](Cc2ccc(O)cc2)NC(=O)CSC[C@@H](C(=O)NCC(N)=O)NC(=O)[C@H](CC=C)NC(=O)[C@H](CCCC)N(C)C(=O)[C@H](CCCC)N(C)C(=O)[C@H](Cc2c[nH]c3ccccc23)NC1=O [Example 7022] ({CH2CO}-Y[NMeA]NP[Dap]LPW[AllylGly]W[NMeNle][NMeNle][AllylGly]CG-NH2; thioether N-14)
12 | > 30.5 | > 74.3 | C=CC[C@@H]1NC(=O)[C@H](Cc2c[nH]c3ccccc23)NC(=O)[C@@H]2CCCN2C(=O)[C@H](CC(C)C)NC(=O)[C@H](Cc2c[nH]cn2)NC(=O)[C@@H]2CCCN2C(=O)[C@H](CC(N)=O)NC(=O)[C@H](C)N(C)C(=O)[C@H](Cc2ccccn2)NC(=O)CSC[C@@H](C(=O)NCC(N)=O)NC(=O)[C@H](CC=C)NC(=O)[C@H](CCCC)N(C)C(=O)[C@H](CCCC)N(C)C(=O)[C@H](Cc2c[nH]c3ccccc23)NC1=O [Example 7023] ({CH2CO}-[2Pal][NMeA]NPHLPW[AllylGly]W[NMeNle][NMeNle][AllylGly]CG-NH2; thioether N-14)
13 | 6.76 to 30.3 | 4.78 to 72.9 | CCCC[C@H]1C(=O)N(C)[C@@H](CCCC)C(=O)N[C@@H](CCCNC(=N)N)C(=O)N[C@H](C(=O)NCC(N)=O)CSCC(=O)N[C@@H](Cc2cccnc2)C(=O)N(C)[C@@H](C)C(=O)N[C@@H](CC(N)=O)C(=O)N2CCC[C@H]2C(=O)N[C@@H](Cc2c[nH]cn2)C(=O)N[C@@H](CC(C)C)C(=O)N2C[C@H](O)C[C@H]2C(=O)N[C@@H](Cc2c[nH]c3ccccc23)C(=O)N[C@@H](CO)C(=O)N[C@@H](Cc2c[nH]c3ccccc23)C(=O)N1C [Example 7024] ({CH2CO}-[3Pal][NMeA]NPHL[Hyp]WSW[NMeNle][NMeNle]RCG-NH2; thioether N-14)
14 | > 30.5 | > 74.3 | CCCC[C@H]1C(=O)N(C)[C@@H](CCCC)C(=O)N[C@@H](CCCNC(=N)N)C(=O)N[C@H](C(=O)NCC(N)=O)CSCC(=O)N[C@@H](Cc2ccccn2)C(=O)N(C)[C@@H](C)C(=O)N[C@@H](CC(N)=O)C(=O)N2CCC[C@H]2C(=O)N[C@@H](Cc2c[nH]cn2)C(=O)N[C@@H](CC(C)C)C(=O)N2C[C@H](O)C[C@H]2C(=O)N[C@@H](Cc2c[nH]c3ccccc23)C(=O)N[C@@H](CO)C(=O)N[C@@H](Cc2c[nH]c3ccccc23)C(=O)N1C [Example 7025] ({CH2CO}-[2Pal][NMeA]NPHL[Hyp]WSW[NMeNle][NMeNle]RCG-NH2; thioether N-14)
15 | 0.385 to 6.74 | 4.78 to 72.9 | CCCC[C@H]1C(=O)N(C)[C@@H](CCCC)C(=O)N[C@@H](Cc2ccccn2)C(=O)N[C@H](C(=O)NCC(N)=O)CSCC(=O)N[C@@H](Cc2ccc(O)cc2)C(=O)N(C)[C@@H](C)C(=O)N[C@@H](CC(N)=O)C(=O)N2CCC[C@H]2C(=O)N[C@@H](Cc2cnc[nH]2)C(=O)N[C@@H](CC(C)C)C(=O)N2C[C@H](O)C[C@H]2C(=O)N[C@@H](Cc2c[nH]c3ccccc23)C(=O)N[C@@H](CO)C(=O)N[C@@H](Cc2c[nH]c3ccccc23)C(=O)N1C [Example 7032]
